Entries after “also recorded” stand apart in the source; their conditions may differ.
Columns and labels:
mouse platelets [1] = assay: Survival of mouse platelets stored 20 hrs at RT in pPAS with or without DGJ after transfusion; assay type: in vivo; details: 2 mM DGJ in pPAS, 30% plasma 70% pPAS, 20-hr storage at RT, vs pPAS alone
Experimental: Materials and Methods: Blood was obtained from anesthetized 8 weeks old C57/Bl6 mice by retroorbital bleeding. Platelets and platelet poor plasma (PPP) were prepared by differential centrifugation as described. Isolated platelets were labeled with 2.5 μM of CMFDA for 15 min. Following staining, platelets were pelleted and resuspended in 500 μl of plasma, or in a mixture of 30% plasma and 70% pPAS (i.e., PPS9 formulation in Tables 1 and 3 without the 2 mM of DGJ shown in the tables) or pPAS+DGJ (2 mM) (PPS9 formulation in Tables 1 and 3). Platelets were stored for 20 hrs at room temperature and transfused into 8 weeks old syngeneic mice. Non-stored fresh platelets in plasma were used as control. Platelet survivals were determined by intravenous injections CMFDA-labeled mouse platelets, respectively. Blood was collected by retroorbital bleeding at 5 min, 2, 24, 48 and 72 hrs. The percentages of CMFDA-positive platelets were determined by flow cytometry.

mouse platelets [2] = assay: Sialidase-induced β-galactose exposure on platelets, lectin binding by flow cytometry; assay type: cell-based
[3] = system: platelet GPIbα and GPV receptor surface expression; assay: Recombinant TACE-mediated GPIbα and GPV shedding from platelets; assay type: cell-based, mouse
mouse platelets [4] = assay: Sialidase (neuraminidase)-induced loss of platelet surface receptors, flow cytometry and immunoblot; assay type: cell-based
mouse platelets [5] = assay: Surface receptor loss of mouse platelets stored at room temperature; assay type: cell-based; details: mouse platelets stored at room temperature for 6 h, with fetuin (30-60% loss without)
mouse platelets [6] = assay: β-galactose exposure by FITC RCA-1 lectin binding with fetuin as competitive sialidase substrate; assay type: cell-based; details: fetuin 1 mg/mL
THP-1 cells = assay: Ingestion of β-galactosidase treated platelets by THP-1 cells; assay type: cell-based; details: fresh human platelets treated with β-galactosidase
Experimental: FIG. 44 is a bar graph showing that […] cells ingestion of human platelets correlates with decrease in β-galactose exposure. Isolated human platelets were labeled with CM-Orange, added to THP-1 cells and incubated for 30 min at 37° C. Ingestion of fluorescently labeled control fresh room temperature platelets and platelets treated by β-galactosidase was detected using flow cytometry, as an increase in […] associated orange fluorescence.
We treated fresh isolated platelets from healthy volunteers with β-galactosidase, which cleaves terminal β-galactose from platelet surfaces.

With `OC[C@H]1NC[C@H](O)[C@@H](O)[C@H]1O` [DGJ, 1-deoxygalactonojirimycin] the “survival of the transfused platelets” value (mouse platelets [1]) was “significantly improved the survival of the transfused platelets”.

With `CNC(=O)[C@H](Cc1c[nH]c2ccccc12)NC(=O)[C@@H](CC(=O)NO)CC(C)C` [GM6001] the “β-galactose exposure induced by sialidase in presence of inhibitor” value (mouse platelets [2]) was “did not prevent β-galactose exposure” and the “receptor shedding by rTACE in presence of inhibitor” value [3] was “inhibited receptor shedding”.

In the case of “fetuin: neuraminidase (NA) substrate, competitive sialidase substrate”, the “loss (shedding) of platelet GPIbα and GPV induced by sialidase/neuraminidase, in presence of inhibitor” value (mouse platelets [4]) is reported as “completely prevented this loss”, the “loss of GPIb and GPV” value (mouse platelets [5]) is reported as 10-20% and the “RCA-1 binding to fresh platelets” value (mouse platelets [6]; fresh platelets at room temperature) is reported as “no effect”. For the same compound, the “sialic acid hydrolysis (β-galactose exposure, RCA-1 binding) during platelet storage” value (mouse platelets [6]; mouse platelet rich plasma, refrigeration 48 h) was “inhibits the hydrolysis of sialic acid from platelet glycans; also recorded: greatly inhibits sialic acid hydrolysis”.

With “rTACE: recombinant TACE (ADAM17) metalloprotease” the “GPIbα released from platelets” value ([3]; platelets treated with rTACE) was 47%±6, the “GPV released from platelets” value ([3]; platelets treated with rTACE) was 18%±12 and the “GPIX and αIIbβ3 released from platelets” value ([3]; platelets treated with rTACE, not shown) was “negligible amounts”.

In the case of β-galactosidase, the “ingestion of platelets by THP-1 cells compared to control platelets” value (THP-1 cells) is reported as 4 fold.

From US9788539B2, “Platelet protection solution having beta-galactosidase and sialidase inhibitors” (Velico Medical, Inc., priority 2011, dated 2017)
